Laboratory results as given in patent publication US20120309728A1, “NEW STEROID INHIBITORS OF PGP FOR USE FOR INHIBITING MULTIDRUG RESISTANCE” (priority 2009, published 2012).

Legend:
K562/R7 cells [1] = assay: Cytotoxicity assay using MTT reagent, with doxorubicin plus steroid modulator; assay type: cell-based, human; settings: for Surviving cells R7 cells (% untreated cells): doxorubicin 10^−6M + steroid modulator 10^−6M, 72 h; for activity compared with cyclosporine A (in words): comment on Table 2 bis, R7 cells
Protocol: Doxorubicin at 10^−6 M was then added to each well. After incubation for 72 h, 20 μL of MTT reagent (5 mg/mL in PBS buffer) were added to each well and the plate was further incubated for 4 h at 37° C., allowing viable cells to change the yellow MTT into dark-blue formazan crystals. Supernatants were carefully discarded and 100 μL of isopropanol containing 10% HCL 1M were added to dissolve the formazan crystals. Absorbance in each well was determined at 570 nm using a microplate reader (MultisKan EX, Thermo Electron). […] At least three different experiments were performed. Results were expressed as the percentage of surviving cells in each well compared to untreated cells.

R7 cells = assay: Intracellular accumulation of daunorubicin measured by flow cytometry; assay type: cell-based, human; settings: for Daunorubicin accumulation: daunorubicin 10 μM, compound 10 μM, 1 h at 37° C.
Protocol: The accumulation of daunorubicin in the presence of steroid modulators according to the invention, i.e. compounds having formula (I), was measured by flow cytometry using a reported procedure (G. Comte et al, J. Med. Chem., 44: 763-768, 2001). K562 or R7 cells ([…]) were incubated for 1 h at 37° C. with 1 mL RPMI 1640 medium containing daunorubicin at 10 μM, in the presence or absence of compounds of the invention (10 μM). The cells were then washed twice with ice-cold PBS and kept on ice until analysis by flow cytometry on a FACS-II (Becton-Dickinson Corp., Mountain View, Calif.). Assays were performed in duplicate, in at least three separate experiments.

K562/R7 cells [2] = assay: Determination of IC50 for cytotoxics ([^3H]thymidine incorporation); settings: R7 cells, 24 h treatment
Protocol: After treatment, the number of surviving cells was evaluated by the incorporation of [^3H]thymidine as described above.

With `CC(=O)C1CCC2C3C[C@@H](OC(=O)c4ccccc4)[C@@H]4CC(=O)CCC4(C)C3[C@H](OC3CCCCO3)CC12C` (mixture of isomers) [Compound 217, 6β-Benzoyloxy-11α-O-[2′(R and S)]tetrahydropyranyloxy(5β)pregnan-3,20-dione] the “Surviving cells R7 cells (% untreated cells)” value (K562/R7 cells [1]) was 5.5 ± 0.4 % untreated cells.
For `CC(=O)C1CCC2C3C[C@@H](OC(=O)c4ccccc4)[C@@H]4CC(=O)CCC4(C)C3[C@H](OC3CCCCO3)CC12C` (mixture of isomers) [Compound 218, 6β-Benzoyloxy-11α-O-[2′(R and S)]tetrahydropyranyloxy(5β)pregnan-3,20-dione], the “Surviving cells R7 cells (% untreated cells)” value (K562/R7 cells [1]) was 6.2 ± 1.1 % untreated cells.
With `COC(=O)CC[C@@H](C)[C@H]1CC[C@H]2[C@@H]3[C@H](OC(=O)c4ccccc4)CC4CC(=O)CC[C@]4(C)[C@H]3C[C@H](O[C@@H]3CCCCO3)[C@]12C` (single isomer, unassigned) [Compound 60] the “Surviving cells R7 cells (% untreated cells)” value (K562/R7 cells [1]) was 2.2 ± 0.3 % untreated cells and the Daunorubicin accumulation (R7 cells) was 79.8 ± 6.1 % of the accumulation measured in the presence of cyclosporine A.
For `CC(=O)C1CCC2C3C(CC[C@]12C)[C@@]1(C)CCC(=O)C=C1C[C@@H]3OC1CCCCO1` (stereo partly drawn) [Compound 3, 7beta-O-[2′(R+S)]Tetrahydropyranyloxypregn-4-ene-3,20-dione], the Daunorubicin accumulation (R7 cells) was 108.78 ± 4.27 % of the accumulation measured in the presence of cyclosporine A.
With `CC(=O)C1CCC2C3CC[C@@H]4CC(=O)CC[C@]4(C)C3[C@H](OC3CCCCO3)C[C@]12C` (stereo partly drawn) [Compound 7, 11α-O-[2′(R)]Tetrahydropyranyloxy(5β)pregnane-3,20-dione] the Daunorubicin accumulation (R7 cells) was 103.0 ± 1.86 % of the accumulation measured in the presence of cyclosporine A.
`CC(=O)[C@@]1(OC2CCCCO2)CCC2C3CCC4=CC(=O)CC[C@]4(C)C3CC[C@@]21C` (stereo partly drawn) [Compound 11, 17alpha-O-[2′(R)]Tetrahydropyranyloxypregn-4-ene-3,20-dione] was tested, and the Daunorubicin accumulation (R7 cells) was 108.08 ± 6.28 % of the accumulation measured in the presence of cyclosporine A.
For `CC(=O)[C@H]1CC[C@H]2[C@H]3[C@H]([C@H](OC(=O)c4ccccc4)C[C@]12C)[C@@]1(C)CCC(=O)C[C@H]1C[C@H]3OC(=O)c1ccccc1` [Compound 30, 7alpha,11alpha-Di benzoyloxy(5beta)pregnane-3,20-dione], the Daunorubicin accumulation (R7 cells) was 75.39 ± 0.39 % of the accumulation measured in the presence of cyclosporine A.
With `CC(=O)C1CCC2C3C([C@H](OC4CCCCO4)C[C@]12C)[C@@]1(C)CCC(=O)C[C@H]1C[C@H]3OC(=O)c1ccccc1` (stereo partly drawn) [Compound 32, 7α-Benzoyloxy-11α-O-[2′(S)]tetrahydropyranyloxy (5β)pregnane-3,20-dione] the Daunorubicin accumulation (R7 cells) was 103.88 ± 4.53 % of the accumulation measured in the presence of cyclosporine A.
With `CC(=O)C1CCC2C3C([C@H](OC4CCCCO4)C[C@]12C)[C@@]1(C)CCC(=O)C[C@H]1C[C@@H]3OC(=O)c1ccccc1` (stereo partly drawn) [Compound 39, 7β-Benzoyloxy-11α-O-[2′(S)]tetrahydropyranyloxy(5β)pregnane-3,20-dione] the Daunorubicin accumulation (R7 cells) was 109.0 ± 1.0 % of the accumulation measured in the presence of cyclosporine A.
In the case of `CC(=O)C1CCC2C3C([C@H](OC4CCCCO4)C[C@]12C)[C@@]1(C)CCC(=O)C[C@H]1C[C@@H]3OC(=O)c1ccccc1` (stereo partly drawn) [Compound 40, 7β-Benzoyloxy-11α-O-[2′(R)]tetrahydropyranyloxy(5β) pregnane-3,20-dione], the Daunorubicin accumulation (R7 cells) is reported as 89.5 ± 0.5 % of the accumulation measured in the presence of cyclosporine A.
In the case of `CC(=O)[C@H]1CC[C@H]2[C@H]3[C@H]([C@H](OC(=O)c4ccccc4)C[C@]12C)[C@@]1(C)CCC(=O)C[C@H]1C[C@@H]3OC(=O)c1ccccc1` [Compound 41, 7β,11α-Dibenzoyloxy(5β)pregnane-3,20-dione], the Daunorubicin accumulation (R7 cells) is reported as 73.3 ± 0.5 % of the accumulation measured in the presence of cyclosporine A.
In the case of `CC(=O)[C@@]1(OC2CCCCO2)CCC2C3CC[C@@H]4CC(=O)CC[C@]4(C)C3[C@H](OC3CCCCO3)C[C@@]21C` (stereo partly drawn) [Compound 52, 11α,17α-Bis-O-[2′(R),2′(R)]tetrahydropyranyloxy(5β)pregnane-3,20-dione], the “accumulation of daunorubicin compared in words with cyclosporine A or progesterone” value (R7 cells) is reported as “equivalent to that observed with cyclosporine A” and the Daunorubicin accumulation (R7 cells) is reported as 102.01 ± 2.0 % of the accumulation measured in the presence of cyclosporine A.
For `CC(=O)[C@@]1(O[C@H]2CCCCO2)CC[C@H]2[C@@H]3CC[C@@H]4CC(=O)CC[C@]4(C)[C@H]3[C@H](O[C@H]3CCCCO3)C[C@@]21C` [Compound 53, 11α,17α-Bis-O-[2′(S),2′(S)]Tetrahydropyranyloxy(5β)pregnane-3,20-dione], the “accumulation of daunorubicin compared in words with cyclosporine A or progesterone” value (R7 cells) was “equivalent to that observed with cyclosporine A” and the Daunorubicin accumulation (R7 cells) was 107.0 ± 5.0 % of the accumulation measured in the presence of cyclosporine A.
For `COC(=O)CC[C@@H](C)[C@H]1CC[C@H]2[C@@H]3[C@H](OC(=O)c4ccccc4)CC4CC(=O)CC[C@]4(C)[C@H]3C[C@H](OC(=O)c3ccccc3)[C@]12C` (stereo partly drawn) [Compound 57, Methyl 3-oxo-7alpha,12alpha-dibenzoyloxycholanate], the Daunorubicin accumulation (R7 cells) was 74 ± 1.0 % of the accumulation measured in the presence of cyclosporine A.
For `COC(=O)CC[C@@H](C)[C@H]1CC[C@H]2[C@@H]3[C@H](OC(=O)c4ccccc4)CC4CC(=O)CC[C@]4(C)[C@H]3C[C@H](O[C@H]3CCCCO3)[C@]12C` (stereo partly drawn) [Compound 59, Methyl 3-oxo-7α-benzoyloxy-12α-O-[2′(S)]tetrahydropyranyloxycholanate], the “Surviving cells R7 cells (% untreated cells)” value (K562/R7 cells [1]) was 1.8 ± 0.1 % untreated cells and the Daunorubicin accumulation (R7 cells) was 85.8 ± 2.6 % of the accumulation measured in the presence of cyclosporine A.
`COC(=O)CC[C@@H](C)[C@H]1CC[C@H]2[C@@H]3[C@H](O[C@H]4CCCCO4)CC4CC(=O)CC[C@]4(C)[C@H]3C[C@H](OC(=O)c3ccccc3)[C@]12C` (stereo partly drawn) [Compound 63, methyl 3-oxo-12α-benzoyloxy-7α-O-[2′(S)]tetrahydro-pyranyloxycholanate] was tested, and the “activity compared with cyclosporine A (in words)” value (K562/R7 cells [1]) was “activity higher than that of the reference compound cyclosporine A”, the “Surviving cells R7 cells (% untreated cells)” value (K562/R7 cells [1]) was 0.7 ± 0.06 % untreated cells and the Daunorubicin accumulation (R7 cells) was 104.7 ± 7.0 % of the accumulation measured in the presence of cyclosporine A.
With `COC(=O)CC[C@@H](C)[C@H]1CC[C@H]2[C@@H]3[C@H](O[C@@H]4CCCCO4)CC4CC(=O)CC[C@]4(C)[C@H]3C[C@H](OC(=O)c3ccccc3)[C@]12C` (stereo partly drawn) [Compound 64, methyl 3-oxo-12α-benzoyloxy-7α-O-[2′(R)]tetra-hydropyranyloxycholanate] the “activity compared with cyclosporine A (in words)” value (K562/R7 cells [1]) was “activity higher than that of the reference compound cyclosporine A”, the “Surviving cells R7 cells (% untreated cells)” value (K562/R7 cells [1]) was 0.8 ± 0.06 % untreated cells and the Daunorubicin accumulation (R7 cells) was 10.0 ± 1.5 % of the accumulation measured in the presence of cyclosporine A.
With `COCCC[C@@H](C)[C@H]1CC[C@H]2[C@@H]3[C@H](OC(=O)c4ccccc4)CC4CC(=O)CC[C@]4(C)[C@H]3C[C@H](OC(=O)c3ccccc3)[C@]12C` (stereo partly drawn) [Compound 71, 3-oxo-7α,12α-dibenzoyloxy-24-methoxycholane] the Daunorubicin accumulation (R7 cells) was 50.50 ± 7.5 % of the accumulation measured in the presence of cyclosporine A.
For `COCCC[C@@H](C)[C@H]1CC[C@H]2[C@@H]3[C@H](O[C@H]4CCCCO4)CC4CC(=O)CC[C@]4(C)[C@H]3C[C@H](OC(=O)c3ccccc3)[C@]12C` (stereo partly drawn) [Compound 73, 3-oxo-12α-benzoyloxy-7α-O-[2′(S)]tetrahydro-pyranyloxy-24-methoxycholane], the Daunorubicin accumulation (R7 cells) was 63.5 ± 5.5 % of the accumulation measured in the presence of cyclosporine A.
For `COCCC[C@@H](C)[C@H]1CC[C@H]2[C@@H]3[C@H](O[C@@H]4CCCCO4)CC4CC(=O)CC[C@]4(C)[C@H]3C[C@H](OC(=O)c3ccccc3)[C@]12C` (stereo partly drawn) [Compound 74, 3-oxo-12α-benzoyloxy-7α-O-[2′(R)]tetrahydropyranyloxy-24-methoxycholane], the Daunorubicin accumulation (R7 cells) was 68.0 ± 15.0 % of the accumulation measured in the presence of cyclosporine A.
In the case of `CC(=O)[C@H]1CC[C@H]2[C@H]3[C@H]([C@H](O)C[C@]12C)[C@@]1(C)CCC(=O)C[C@H]1C[C@H]3OC1CCCCO1` (stereo partly drawn) [Compound 204, 7α-O-[2′(R+S)]Tetrahydropyranyloxy-11α-hydroxy(5β)pregnane-3,20-dione], the “Surviving cells R7 cells (% untreated cells)” value (K562/R7 cells [1]) is reported as 2.8 ± 0.7 % untreated cells and the Daunorubicin accumulation (R7 cells) is reported as 87.4 ± 3.5 % of the accumulation measured in the presence of cyclosporine A.
For `COC(=O)CC[C@@H](C)C1CCC2C3C[C@H](OC4CCCCO4)[C@@H]4CC(=O)CCC4(C)C3CCC21C` (stereo partly drawn) [Compound 210, Methyl 3-oxo-6α-O-[2′(R+S)]tetrahydropyranyloxycholanate], the “Surviving cells R7 cells (% untreated cells)” value (K562/R7 cells [1]) was 4.1 ± 1.1 % untreated cells and the Daunorubicin accumulation (R7 cells) was 66.7 ± 1.8 % of the accumulation measured in the presence of cyclosporine A.
`COc1cc2c(c(OC)c1OC)-c1ccc(OC)c(=O)cc1[C@@H](NC(C)=O)CC2` [colchicine] was tested, and the “resistance of the cells to the cytotoxic drug (in words)” value (K562/R7 cells [2]) was “resistant”.
`CC(=O)[C@H]1CC[C@H]2[C@@H]3CCC4=CC(=O)CC[C@]4(C)[C@H]3CC[C@]12C` [progesterone, reference compound] was tested, and the Daunorubicin accumulation (R7 cells) was 36.27 ± 4.9 % of the accumulation measured in the presence of cyclosporine A.
In the case of Cyclosporine A [reference compound], the “Surviving cells R7 cells (% untreated cells)” value (K562/R7 cells [1]) is reported as 1.6 ± 0.5 % untreated cells.
